# Laboratory results as given in US9156860B2, “Boron-containing small molecules” (Anacor Pharmaceuticals, Inc., priority 2011, dated 2015).
# Key:
# Type in all cases: in vivo
# [1] = test system: adult American dog tick (Dermacentor variabilis); experiment: Example 4: efficacy against adult American dog tick infestations on dogs; settings: for therapeutic efficacy: 24 hour post-treatment
# Procedure: The therapeutic (knockdown) and residual efficacy of 7, administered orally at a point dosages of 5 and 25 mg/kg bodyweight, was evaluated against adult American dog tick (D. variabilis) and cat flea (C. felis) infestations on dogs. Sixteen (16) male and female beagle dogs were allocated to one of four treatment groups: Untreated control group (n=4 dogs); 7, 5 mg/kg liquid oral dosage form (n=4 dogs); 7, 25 mg/kg liquid oral dosage form (n=4 dogs); and 7, 25 mg/kg solid oral dosage form. Liquid dosage forms were prepared by dissolving 7 in a solution of 55% polyethylene glycol-300, 35% propylene glycol and 10% water at 25 mg/ml. Solid oral dosage form was prepared by thoroughly mixing 7 with microcrystalline cellulose and croscarmellose sodium (50:47:3, w/w) and placing into size 00 gelatin capsules. On Day 0, all dogs were orally administered 7 at the prescribed point dosages. Twenty-four (24) hours before treatment (Day −1), all dogs were infested with approximately 50 unfed, adult-stage American dog ticks (D. variabilis; approximately 50% male and 50% female). […] For all groups, dogs were re-infested with approximately 50 unfed, adult D. variabilis ticks on Days 5 and 12, with tick classification, counts and removal on Days 7 and 14 (approximately 48 hours after each infestation). For negative control and 7 (25 mg/kg solid oral dosage form) groups, dogs were re-infested with approximately 50 unfed, adult D. variabilis ticks on Days 19 and 28, with tick classification, counts and removal on Days 21 and 30. Immediately following removal of ticks on Day 30, dogs in the negative control and 7 (25 mg/kg solid oral dosage form) groups were infested with approximately 100 unfed, adult cat fleas (C. felis). Flea counts were conducted approximately 48 hours later, on Day 32.
# The total number of live ticks or fleas (normal plus moribund classification) present on each dog was determined for each interval, and this number was transformed using the natural logarithm transformation plus one (Ln count+1); addition of one to each count served to adjust for counts that were zero. Geometric mean (GM) group tick or flea counts were obtained via back-transformation of group mean transformed counts and subtracting one. The negative control group was used for comparison to 7 groups for the calculation of percent efficacy (% reduction in live tick or flea counts). GM percent efficacy of treatments was calculated using the following formula: […]
# [2] = test system: cat flea (Ctenocephalides felis); experiment: Example 4: efficacy against cat flea infestations on dogs; settings: 25 mg/kg oral, solid dosage form, Day 32
# Procedure: The therapeutic (knockdown) and residual efficacy of 7, administered orally at a point dosages of 5 and 25 mg/kg bodyweight, was evaluated against adult American dog tick (D. variabilis) and cat flea (C. felis) infestations on dogs. Sixteen (16) male and female beagle dogs were allocated to one of four treatment groups: Untreated control group (n=4 dogs); 7, 5 mg/kg liquid oral dosage form (n=4 dogs); 7, 25 mg/kg liquid oral dosage form (n=4 dogs); and 7, 25 mg/kg solid oral dosage form. Liquid dosage forms were prepared by dissolving 7 in a solution of 55% polyethylene glycol-300, 35% propylene glycol and 10% water at 25 mg/ml. Solid oral dosage form was prepared by thoroughly mixing 7 with microcrystalline cellulose and croscarmellose sodium (50:47:3, w/w) and placing into size 00 gelatin capsules. On Day 0, all dogs were orally administered 7 at the prescribed point dosages. […]
# The total number of live ticks or fleas (normal plus moribund classification) present on each dog was determined for each interval, and this number was transformed using the natural logarithm transformation plus one (Ln count+1); addition of one to each count served to adjust for counts that were zero. […] GM percent efficacy of treatments was calculated using the following formula: […]
# [3] = test system: adult American dog tick (Dermacentor variabilis); experiment: Example 5: efficacy against adult American dog tick infestations on dogs
# Procedure: The therapeutic (knockdown) and residual efficacy of 7 and 8, each administered orally at a point dose of either 25 mg/kg or 50 mg/kg bodyweight, was evaluated against adult tick (Dermacentor variabilis and Rhipicephalus sanguineus) infestations on dogs. Twenty (20) male and female beagle dogs were allocated to one of five treatment groups, four (4) dogs per group: Untreated control; 7, 25 mg/kg; 7, 50 mg/kg; 8, 25 mg/kg; and 8, 50 mg/kg. On Day −1, all dogs were infested with approximately 50 unfed, adult D. variabilis ticks. On Day 0, dogs were orally administered gelatin capsules containing either 7 or 8 (50% technical active, 47% microcrystalline cellulose and 3% croscarmellose sodium, w/w) so as to achieve the desired point dosages. Ticks were counted and classified on all dogs, but not removed, on Day 1 (approximately 24 hours after treatment). On Day 2, approximately 48 hours after treatment, ticks were counted, classified and removed. Dogs were re-infested with the same number of D. variabilis ticks on Days 5, 12 and 19 with corresponding 48 hour post-infestation tick counts on Days 7, 14 and 21. Dogs were infested with approximately 50 unfed, adult brown dog ticks (Rhipicephalus sanguineus; approximately 50% male and 50% female) on Days 15 and 28, with corresponding 48 hour post-infestation tick counts on Days 17 and 30. GM percent efficacy of treatments against both tick species was calculated using the following formula: […]
# [4] = 5 mg/kg oral, liquid dosage form, Day 2
# [5] = 5 mg/kg oral, liquid dosage form, Day 7
# [6] = 5 mg/kg oral, liquid dosage form, Day 14
smiles,measurement,setting,value
"CC1(C)OB(O)c2ccc(C3=NOC(c4cc(Cl)c(Cl)c(Cl)c4)(C(F)(F)F)C3)cc21 (racemic) [Compound 7, 3,3-Dimethyl-5-(5-(3,4,5-trichlorophenyl)-5-(trifluoromethyl)-4,5-dihydroisoxazol-3-yl)benzo[c][1,2]oxaborol-1(3H)-ol]",therapeutic and residual efficacy,"[1]; 5 mg/kg liquid oral dosage form, all intervals",< 70%
same,% efficacy,[1]; [4],(68.2) %
same,Geometric mean group live tick count,[1]; [4],10.6
same,% efficacy,[1]; [5],(0.0) %
same,Geometric mean group live tick count,[1]; [5],36.5
same,% efficacy,[1]; [6],(0.0) %
same,Geometric mean group live tick count,[1]; [6],36.8
same,therapeutic efficacy,"[1]; 25 mg/kg oral, liquid dosage form",100%
same,Geometric mean group live tick count,"[1]; 25 mg/kg oral, liquid dosage form, Day 2",0.0
same,Geometric mean group live tick count,"[1]; 25 mg/kg oral, liquid dosage form, Day 7",2.6
same,Geometric mean group live tick count,"[1]; 25 mg/kg oral, liquid dosage form, Day 14",16.9
same,therapeutic efficacy,"[1]; 25 mg/kg oral, solid dosage form",100%
same,Geometric mean group live tick count,"[1]; 25 mg/kg oral, solid dosage form, Day 2",0.0
same,Geometric mean group live tick count,"[1]; 25 mg/kg oral, solid dosage form, Day 7",0.7
same,Geometric mean group live tick count,"[1]; 25 mg/kg oral, solid dosage form, Day 14",6.3
same,Geometric mean group live tick count,"[1]; 25 mg/kg oral, solid dosage form, Day 21",6.8
same,Geometric mean group live tick count,"[1]; 25 mg/kg oral, solid dosage form, Day 30",10.7
same,Geometric mean group live flea count,[2],3.9
same,% efficacy,"[3]; 25 mg/kg oral capsule, Day 1",(90.4) %
same,Geometric mean group live tick count,"[3]; 25 mg/kg oral capsule, Day 1",1.0
same,Geometric mean group live tick count,"[3]; 25 mg/kg oral capsule, Day 2",0.0
same,Geometric mean group live tick count,"[3]; 25 mg/kg oral capsule, Day 7",0.7
same,% efficacy,"[3]; 25 mg/kg oral capsule, Day 14",(67.6) %
same,Geometric mean group live tick count,"[3]; 25 mg/kg oral capsule, Day 14",5.3
same,% efficacy,"[3]; 25 mg/kg oral capsule, Day 21",(71.1) %
same,Geometric mean group live tick count,"[3]; 25 mg/kg oral capsule, Day 21",4.7
same,% efficacy,"[3]; 50 mg/kg oral capsule, Day 1",(83.0) %
same,Geometric mean group live tick count,"[3]; 50 mg/kg oral capsule, Day 1",1.8
same,Geometric mean group live tick count,"[3]; 50 mg/kg oral capsule, Day 2",0.0
same,Geometric mean group live tick count,"[3]; 50 mg/kg oral capsule, Day 7",0.4
same,% efficacy,"[3]; 50 mg/kg oral capsule, Day 14",(88.5) %
same,Geometric mean group live tick count,"[3]; 50 mg/kg oral capsule, Day 14",1.9
same,% efficacy,"[3]; 50 mg/kg oral capsule, Day 21",(80.1) %
same,Geometric mean group live tick count,"[3]; 50 mg/kg oral capsule, Day 21",3.2
